Experimental findings from patent publication US7446199B2, “Compositions useful as inhibitors of protein kinases” (Vertex Pharmaceuticals Incorporated, priority 2003, dated 2008) are described below.

Each structure is given as a SMILES string. pKi: −log10 of the molar value.

One assay concerns the target c-Met (Homo sapiens, UniProt P08581). In words: Ki determination for the inhibition of c-Met, coupled enzyme system. The assay is classed as biochemical. Particulars: 200 μM ATP, 10 μM polyGluTyr, 80 nM c-Met, 30° C. The essentials: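 Coupled pyruvate kinase/lactate dehydrogenase NADH assay with 80 nM c-Met, 200 μM ATP, 10 μM polyGluTyr in pH 7.5 HEPES, 1.5% DMSO at 30° C. Compound (0.006–12.5 μM final, 12-point) preincubated 10 min; ATP started reaction, rates read over 10 min; Ki derived from rate versus inhibitor concentration.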

The next assay has as its target T1, JAK3 (Homo sapiens, UniProt P52333).
T1 sequence (P52333 1-1124): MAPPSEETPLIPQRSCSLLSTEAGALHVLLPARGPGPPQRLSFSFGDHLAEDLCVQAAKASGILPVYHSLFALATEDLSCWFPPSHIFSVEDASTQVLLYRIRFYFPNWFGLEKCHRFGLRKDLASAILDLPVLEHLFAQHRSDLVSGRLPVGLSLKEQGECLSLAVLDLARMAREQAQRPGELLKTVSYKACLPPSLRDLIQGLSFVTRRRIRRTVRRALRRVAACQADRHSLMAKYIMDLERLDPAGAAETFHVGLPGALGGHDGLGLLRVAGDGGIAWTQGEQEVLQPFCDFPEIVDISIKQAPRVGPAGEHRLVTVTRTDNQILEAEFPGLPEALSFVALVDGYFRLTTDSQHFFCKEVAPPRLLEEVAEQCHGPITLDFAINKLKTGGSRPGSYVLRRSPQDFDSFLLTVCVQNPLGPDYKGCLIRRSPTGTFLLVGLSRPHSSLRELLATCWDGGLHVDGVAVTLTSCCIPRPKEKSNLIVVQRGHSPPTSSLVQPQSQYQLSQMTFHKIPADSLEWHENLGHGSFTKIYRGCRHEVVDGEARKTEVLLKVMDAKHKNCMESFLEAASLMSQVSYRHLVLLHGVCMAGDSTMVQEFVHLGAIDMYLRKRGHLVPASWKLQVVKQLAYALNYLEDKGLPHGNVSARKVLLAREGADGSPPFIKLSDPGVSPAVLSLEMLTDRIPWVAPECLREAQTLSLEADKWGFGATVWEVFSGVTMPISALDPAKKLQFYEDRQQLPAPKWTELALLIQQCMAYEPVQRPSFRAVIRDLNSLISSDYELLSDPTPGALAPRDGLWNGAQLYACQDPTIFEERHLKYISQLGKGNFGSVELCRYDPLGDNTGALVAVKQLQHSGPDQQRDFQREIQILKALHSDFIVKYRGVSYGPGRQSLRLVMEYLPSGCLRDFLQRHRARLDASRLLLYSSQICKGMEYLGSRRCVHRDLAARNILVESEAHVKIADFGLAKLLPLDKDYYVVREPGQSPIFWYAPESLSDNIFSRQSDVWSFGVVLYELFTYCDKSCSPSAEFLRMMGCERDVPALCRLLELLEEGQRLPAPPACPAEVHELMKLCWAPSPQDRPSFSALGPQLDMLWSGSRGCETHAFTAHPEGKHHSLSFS
The experiment in a line: JAK3 inhibition assay (ELISA, Poly (Glu, Ala, Tyr) coated plates). The format is biochemical. Particulars: 2 mM ATP, 60 minutes at 30° C. The method, boiled down: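 ELISA on Poly(Glu,Ala,Tyr) 6:3:1-coated plates with 2 mM ATP and 5 mM MgCl2. JAK enzyme started the reaction, run 60 min at 30° C. Phosphotyrosine was detected with HRP-conjugated 4G10 antibody and TMB, read at 450 nm, and IC50 was derived from optical densities.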
For orientation: ELISA stands for enzyme-linked immunosorbent assay.

What is called pKi is the negative decadic logarithm of the Ki, by convention in mol/L. Read a high pKi as a small Ki.

Sequence of c-Met (P08581 25-1390): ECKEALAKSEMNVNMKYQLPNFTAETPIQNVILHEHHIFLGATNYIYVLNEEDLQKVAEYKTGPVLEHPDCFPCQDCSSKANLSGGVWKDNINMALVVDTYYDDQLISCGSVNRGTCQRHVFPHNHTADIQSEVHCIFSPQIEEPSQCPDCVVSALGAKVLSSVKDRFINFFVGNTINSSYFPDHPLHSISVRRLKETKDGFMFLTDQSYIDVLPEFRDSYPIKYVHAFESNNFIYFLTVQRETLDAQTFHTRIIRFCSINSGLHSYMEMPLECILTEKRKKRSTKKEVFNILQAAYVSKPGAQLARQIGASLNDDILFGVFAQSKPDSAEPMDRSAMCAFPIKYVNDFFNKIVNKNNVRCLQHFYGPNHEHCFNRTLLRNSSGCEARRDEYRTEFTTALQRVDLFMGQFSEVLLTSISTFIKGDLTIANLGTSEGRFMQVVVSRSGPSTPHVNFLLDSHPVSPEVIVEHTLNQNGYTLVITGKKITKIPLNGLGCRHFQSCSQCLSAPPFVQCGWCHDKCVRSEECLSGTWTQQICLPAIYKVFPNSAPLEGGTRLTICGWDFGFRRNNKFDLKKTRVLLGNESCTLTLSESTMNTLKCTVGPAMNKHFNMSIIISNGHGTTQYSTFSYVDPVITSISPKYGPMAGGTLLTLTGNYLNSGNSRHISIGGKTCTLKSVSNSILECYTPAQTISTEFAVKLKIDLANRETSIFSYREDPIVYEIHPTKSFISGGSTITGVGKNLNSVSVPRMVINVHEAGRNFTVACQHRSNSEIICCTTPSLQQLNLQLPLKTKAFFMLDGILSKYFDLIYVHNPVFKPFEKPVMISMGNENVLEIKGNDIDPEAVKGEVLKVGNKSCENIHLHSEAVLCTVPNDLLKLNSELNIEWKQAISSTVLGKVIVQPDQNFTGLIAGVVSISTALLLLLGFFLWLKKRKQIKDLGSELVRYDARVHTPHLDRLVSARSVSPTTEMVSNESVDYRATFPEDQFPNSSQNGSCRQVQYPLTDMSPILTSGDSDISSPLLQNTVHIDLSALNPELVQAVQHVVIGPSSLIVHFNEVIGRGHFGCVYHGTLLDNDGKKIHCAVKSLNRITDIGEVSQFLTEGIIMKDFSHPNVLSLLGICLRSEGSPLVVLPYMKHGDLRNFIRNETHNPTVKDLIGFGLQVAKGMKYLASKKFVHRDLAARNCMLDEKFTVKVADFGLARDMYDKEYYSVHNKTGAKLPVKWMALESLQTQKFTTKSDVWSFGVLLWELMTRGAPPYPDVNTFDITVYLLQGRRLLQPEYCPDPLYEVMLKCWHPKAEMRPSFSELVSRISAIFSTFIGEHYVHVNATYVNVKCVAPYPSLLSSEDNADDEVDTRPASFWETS

On to `CN1CCN(Cc2ccc(-c3cnc4[nH]cc(-c5oncc5-c5cccc(F)c5F)c4c3)cc2)CC1` [Compound 94, 3-[4-(2,3-Difluoro-phenyl)-isoxazol-5-yl]-5-[4-(4-methyl-piperazin-1-ylmethyl)-phenyl]-1H-pyrrolo[2,3-b]pyridine], for which the pKi at c-Met and on JAK3 was above 6.70 each time.
Turning to `CC(=O)Nc1ccc(-c2cnc3[nH]cc(-c4oncc4-c4cccc(F)c4F)c3c2)cc1` [Compound 95, N-(4-{3-[4-(2,3-Difluoro-phenyl)-isoxazol-5-yl]-1H-pyrrolo[2,3-b]pyridin-5-yl}-phenyl)-acetamide], the pKi at c-Met and at JAK3 was above 6.70 in each case.
Turning to `COc1cncc(-c2cnc3[nH]cc(-c4oncc4-c4cccc(F)c4F)c3c2)c1` [Compound 96, 3-[4-(2,3-Difluoro-phenyl)-isoxazol-5-yl]-5-(5-methoxy-pyridin-3-yl)-1H-pyrrolo[2,3-b]pyridine], the negative-log Ki (pKi) on c-Met and on JAK3 was above 6.70 throughout.
In the case of `CS(=O)(=O)n1ccc2cc(-c3cnc4[nH]cc(-c5oncc5-c5cccc(F)c5F)c4c3)cnc21` [Compound 97, 3′-[4-(2,3-Difluoro-phenyl)-isoxazol-5-yl]-1-methanesulfonyl-1H, 1′H-[5,5′]bi[pyrrolo[2,3-b]pyridinyl]], the negative-log Ki (pKi) is above 6.70 at c-Met and 6.00 to 6.70 at JAK3.
Regarding `CS(=O)(=O)Nc1ccc(-c2cnc3[nH]cc(-c4oncc4-c4cccc(F)c4F)c3c2)cc1` [Compound 98, N-(4-{3-[4-(2,3-Difluoro-phenyl)-isoxazol-5-yl]-1H-pyrrolo[2,3-b]pyridin-5-yl}-phenyl)-methane sulfonamide], the negative logarithm of the Ki (pKi) at c-Met and at JAK3 was above 6.70 each time.
On to `Clc1cccc(-c2cnoc2-c2c[nH]c3ncc(-c4cccnc4)cc23)c1Cl` [Compound 99, 3-[4-(2,3-Dichloro-phenyl)-isoxazol-5-yl]-5-pyridin-3-yl-1H-pyrrolo[2,3-b]pyridine], for which the negative-log Ki (pKi) at c-Met and on JAK3 was above 6.70 throughout.
As to `CNc1ccc2c(-c3oncc3-c3cccc(F)c3F)c[nH]c2n1` [Compound 102, {3-[4-(2,3-Difluoro-phenyl)-isoxazol-5-yl]-1H-pyrrolo[2,3-b]pyridin-6-yl}-methyl-amine], the negative-log Ki (pKi) is above 6.70 on c-Met and 4.90 to 6.00 at JAK3.
For `COC(=O)c1cnc2[nH]cc(-c3oncc3-c3cccc(F)c3F)c2c1` [Compound 105, 3-[4-(2,3-Difluoro-phenyl)-isoxazol-5-yl]-1H-pyrrolo[2,3-b]pyridine-5-carboxylic acid methyl ester], in that order: above 6.70 and above 6.70.
`CN(C)c1ccc(-c2cnc3[nH]cc(-c4nncn4-c4cccc(F)c4F)c3c2)cc1` [Compound 106, (4-{3-[4-(2,3-Difluoro-phenyl)-4H-[1,2,4]triazol-3-yl]-1H-pyrrolo[2,3-b]pyridin-5-yl}-phenyl)-dimethyl-amine]: the results for the pKi on c-Met and on JAK3 were above 6.70 and 6.00 to 6.70, respectively.
As to `Fc1cccc(-n2cnnc2-c2c[nH]c3ncc(-c4ccc(CN5CCOCC5)cc4)cc23)c1F` [Compound 109, 3-[4-(2,3-Difluoro-phenyl)-4H-[1,2,4]triazol-3-yl]-5-(4-morpholin-4-ylmethyl-phenyl)-1H-pyrrolo[2,3-b]pyridine], the negative logarithm of the Ki (pKi) at c-Met is above 6.70; at JAK3 it was 6.00 to 6.70.
Turning to `CN1CCN(c2ccc(-c3cnc4[nH]cc(-c5nncn5-c5cccc(F)c5F)c4c3)cc2)CC1` [Compound 110, 3-[4-(2,3-Difluoro-phenyl)-4H-[1,2,4]triazol-3-yl]-5-[4-(4-methyl-piperazin-1-yl)-phenyl]-1H-pyrrolo[2,3-b]pyridine], the pKi was above 6.70 at c-Met and 6.00 to 6.70 at JAK3.
On to `CN1CCN(c2ccc(-c3cnc4[nH]cc(-c5nncn5-c5cccc(F)c5F)c4c3)cn2)CC1` [Compound 112], for which the pKi was above 6.70 on c-Met and 4.90 to 6.00 at JAK3.
